Paper PMC9917184, “Synthesis and Biological Evaluation of Potential Oncoimmunomodulator Agents” (International Journal of Molecular Sciences, 2023)
Where two headings read alike, the source gives them in different places.

Key:
[1] = target: T1, membrane PD-L1 (Homo sapiens, UniProt Q9NZQ7); assay: Membrane PD-L1 relative quantification by flow cytometry in cancer cells co-cultured with Jurkat T cells; assay type: cell-based; conditions: Jurkat, 24 h; for remaining activity at 100 µM: relative to non-treated co-cultures, read-out: % PDL1 (membrane)
T1 construct: Alexa Fluor® 647 Rabbit monoclonal Anti-PD-L1 (ab215251); endogenous in cells; host or cells: HT-29, MCF-7, A-549 (A17: MCF-7 only; A14: IFN-gamma-stimulated cancer cells co-cultured with Jurkat T cells)
T1 sequence (Q9NZQ7 19-290): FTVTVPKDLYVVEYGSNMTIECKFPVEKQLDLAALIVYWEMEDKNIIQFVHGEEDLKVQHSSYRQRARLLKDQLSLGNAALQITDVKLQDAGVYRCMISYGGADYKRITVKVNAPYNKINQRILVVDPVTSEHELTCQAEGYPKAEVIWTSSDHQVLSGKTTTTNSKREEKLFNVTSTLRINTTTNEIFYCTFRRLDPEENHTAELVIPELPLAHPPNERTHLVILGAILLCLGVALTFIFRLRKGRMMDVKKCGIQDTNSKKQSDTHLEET
Method: (§1) We determined by flow cytometry the effect of these compounds on the expression of membrane PD-L1 in cancer cells when they were co-cultured with immune cells. Thus, interferon γ-stimulated cancer cells were treated for 24 h with the compounds at 100 μM in presence of Jurkat T cells. Then, cells were fixed and treated with anti-PD-L1 conjugated to AlexaFluor®647. We took advantage of the versatility of flow cytometry to simultaneously measure the expression of membrane VEGFR-2 by using anti-VEGFR-2 conjugated to fluorescein.
(§2) To study the effect of the compounds on every biological target in co-cultured cancer cell lines, the compounds were incubated for 24h as described before.
(§3) To detect membrane PD-L1 and VEGFR-2, after the cell treatments, they were collected, fixed with 4% in PBS paraformaldehyde, and stained with FITC Mouse monoclonal Anti-Human VEGFR-2 (ab184903) and Alexa Fluor® 647 Rabbit monoclonal Anti-PD-L1 (ab215251).

[2] = tested on: c-Myc; assay: Total c-Myc relative quantification by flow cytometry in cancer cell lines; assay type: cell-based, human; conditions: 24 h
Method: (§4) The effect of these triazole derivates on c-Myc and PD-L1 was measured in three different cancer cell lines (HT-29, MCF-7, A-549) by flow cytometry. Thus, cells were incubated for 24 h with the corresponding compound at a concentration of 100 μM. Dimethyl sulfoxide (DMSO)-treated cells were used as the negative control, and a PD-L1 inhibitor, BMS-8 [29, 31], was used as a reference control. After permeabilization and fixation, cells were treated with anti-PD-L1 conjugated to AlexaFluor®647 and anti-c-Myc conjugated to fluorescein to determine the amount of both targets related to the negative control. Table 1 show the results in terms of the percentage of the detected target in relation to the negative control. This assay was carried out on cancer cell lines HT-29, MCF-7, and A-549.
(§5) To study the effect of the compounds on every biological target in cancer cell lines, the compounds were used at a 100 µM dose.
(§6) For the assay, 10^5 cells per well were incubated for 24 h with the corresponding dose of the tested compound in a total volume of 500 μL of their growth media.
(§7) To detect total PD-L1 and c-Myc, after the cell treatments, they were collected and fixed with 4% in PBS paraformaldehyde. After fixation, a treatment with 0,5% in PBS Triton™ X-100 was performed, and finally, cells were stained with FITC Mouse monoclonal Anti-c-Myc (ab223913) and Alexa Fluor® 647 Rabbit monoclonal Anti-PD-L1 (ab215251).

[3] = target: PD-L1 (Homo sapiens, UniProt Q9NZQ7); assay: Total PD-L1 relative quantification by flow cytometry in cancer cell lines; assay type: cell-based; design: Alexa Fluor® 647 Rabbit monoclonal Anti-PD-L1 (ab215251); endogenous in cells; host or cells: HT-29; conditions: 24 h, total PD-L1 relative to negative control (DMSO)
Chain of PD-L1 (Q9NZQ7 19-290): as above
Method: as §4, §5, §6, §7

[4] = tested on: MCF-7; assay: MCF-7 cell viability in co-culture with Jurkat T cells (flow cytometry count); assay type: cell-based, human; conditions: Homo sapiens, MCF7, MCF-7/Jurkat T co-culture, IFN-γ stimulated, 24 h, read-out: percentage of living MCF-7 cells relative to non-treated co-cultures
Method: (§8) The effect of the synthesized compounds on tumor cell proliferation in the presence of PD-1-expressing Jurkat T cells was also studied. This assay was carried out, as in the previous experiments, in the HT29, MCF7, and A549 cell lines (see Table 4). Interferon γ-stimulated cancer cells were treated for 24 h with the compounds at 100 μM in presence of Jurkat T cells. Then, cells were counted using flow cytometry. The percentage of living cells relative to non-treated co-cultures (control) was established for both cancer and immune cells in every co-culture.
(§9) To study the effect of the compounds on the cell viability in co-culture with Jurkat T cells or THP-1 cells, 10^5 or 2 × 10^5 of the corresponding cancer cells line per well were seeded and incubated for 24 h, then the medium was changed by one cell culture medium supplemented with IFN-γ (10 ng/mL; human, Invitrogen®) and containing 5 × 10^5 or 10^5 Jurkat T cells or THP-1, respectively, per well and 100 µM of the corresponding compound or DMSO for the […] control. After 24 h/48 h of incubation, supernatants were collected to determine Jurkat T or THP-1 living cells, and on the other hand, corresponding cancer cells were collected with trypsin. Both types of suspension cells were fixed with 4% in PBS paraformaldehyde and counted by flow cytometry.

[5] = tested on: Jurkat T cells; assay: Jurkat T cell viability in co-culture with cancer cells (flow cytometry count); assay type: cell-based; conditions: Homo sapiens, 24 h, read-out: percentage of living Jurkat cells relative to non-treated co-cultures
Method: as §8, §9

[6] = tested on: membrane VEGFR-2; assay: Membrane VEGFR-2 relative quantification by flow cytometry in cancer cells co-cultured with Jurkat T cells; assay type: cell-based, human; conditions: 100 μM, 24 h, relative to non-treated co-cultures
Method: as §1, §2, §3

[7] = tested on: A-549; assay: A-549 cell viability in co-culture with Jurkat T cells (flow cytometry count); assay type: cell-based, human; conditions: 24 h; for viability at 100 µM: Homo sapiens, A549, A-549/Jurkat T co-culture, IFN-γ stimulated, read-out: percentage of living A-549 cells relative to non-treated co-cultures; for inhibition rate of A-549 cell viability: co-cultured with Jurkat T cells, 100 μM
Method: as §8, §9

[8] = tested on: HT-29; assay: HT-29 cell viability in co-culture with Jurkat T cells (flow cytometry count); assay type: cell-based, human; conditions: 24 h; for viability at 100 µM: Homo sapiens, HT-29/Jurkat T co-culture, IFN-γ stimulated, read-out: percentage of living HT-29 cells relative to non-treated co-cultures
Method: as §8, §9

[9] = A549 co-cultured with Jurkat T cells
[10] = HT29 co-cultured with Jurkat T cells
[11] = MCF7 co-cultured with Jurkat T cells
[12] = A-549, 100 µM, relative to negative control (DMSO)
[13] = HT-29, 100 µM, detected target relative to negative control (DMSO)
[14] = MCF-7, 100 µM, relative to negative control (DMSO)

remaining activity at 100 µM [1, 9] | remaining activity at 100 µM [1, 10] | remaining activity at 100 µM [1, 11] | remaining activity at 100 µM ([3]; A549, A-549, 100 µM) | remaining activity at 100 µM ([3]; HT-29, 100 µM) | remaining activity at 100 µM ([3]; MCF7, MCF-7, 100 µM) | Compound | % c-Myc [2, 12] | % c-Myc [2, 13] | % c-Myc [2, 14] | viability at 100 µM [4] | viability at 100 µM ([5]; A-549/Jurkat T co-culture) | viability at 100 µM ([5]; HT-29/Jurkat T co-culture) | viability at 100 µM ([5]; MCF-7/Jurkat T co-culture) | %VEGFR2 (membrane) [6, 9] | %VEGFR2 (membrane) [6, 10] | %VEGFR2 (membrane) [6, 11] | viability at 100 µM [7] | viability at 100 µM [8] | inhibition rate of A-549 cell viability [7] | other results
60 ± 6% | 124 ± 34% | 82 ± 6% | 76 ± 2% | 82 ± 6% | 115 ± 7% | OCCc1ccc(CCn2cc(-c3ccccc3)nn2)cc1 [Compound 2, 2-(4-(2-(4-phenyl-1H-1,2,3-triazol-1-yl)ethyl)phenyl)ethan-1-ol] | 79 ± 10% | 115 ± 8% | 122 ± 13% | 80 ± 6% | 89 ± 17% | 107 ± 4% | 87 ± 22% | 90 ± 10% | 101 ± 11% | 86 ± 2% | 123 ± 25% | 79 ± 20% |  | 
77 ± 3% | 88 ± 5% | 41 ± 2% | 67 ± 8% | 157 ± 6% | 88 ± 1% | COc1cccc(-c2cn(CCc3ccc(CCO)cc3)nn2)c1 [Compound 12, 2-(4-(2-(4-(3-methoxyphenyl)-1H-1,2,3-triazol-1-yl)ethyl)phenyl)ethan-1-ol] | 113 ± 9% | 84 ± 2% | 81 ± 4% | 78 ± 4% | 83 ± 6% | 104 ± 5% | 123 ± 11% | 99 ± 6% | 113 ± 4% | 103 ± 8% | 86 ± 2% | 60 ± 3% | around 30% | inhibition rate of HT-29 cell viability ([8]; co-cultured with Jurkat T cells, 100 μM): around 40%
96 ± 9% | 143 ± 48% | 109 ± 9% | 63 ± 16% | 85 ± 3% | 90 ± 8% | COc1ccc(C(OCCc2ccc(CCn3cc(-c4ccccc4)nn3)cc2)(c2ccccc2)c2ccc(OC)cc2)cc1 [Compound 1, 1-(4-(2-(bis(4-methoxyphenyl)(phenyl)methoxy)ethyl)phenethyl)-4-phenyl-1H-1,2,3-triazole] | 182 ± 27% | 135 ± 5% | 73 ± 1% | 56 ± 6% | 88 ± 18% | 108 ± 6% | 86 ± 13% | 79 ± 7% | 85 ± 0% | 76 ± 1% | 127 ± 1% | 81 ± 12% |  | 
82 ± 2% | 63 ± 11% | 40 ± 5% | 92 ± 21% | 57 ± 8% | 89 ± 5% | COc1ccc(-c2cn(CCc3ccc(CCOC(c4ccccc4)(c4ccc(OC)cc4)c4ccc(OC)cc4)cc3)nn2)cc1 [Compound 9, 1-(4-(2-(bis(4-methoxyphenyl)(phenyl)methoxy)ethyl)phenethyl)-4-(4-methoxyphenyl)-1H-1,2,3-triazole] | 61 ± 3% | 71 ± 10% | 88 ± 4% | 69 ± 9% | 462 ± 99% | 56 ± 18% | 84 ± 17% | 92 ± 3% | 76 ± 13% | 76 ± 10% | 106 ± 1% | 51 ± 17% | no activity | inhibition at 100 µM ([1]; HT-29 co-cultured with Jurkat T cells, read-out: membrane PD-L1 inhibition rate): 40 to 50%; c-Myc inhibition rate ([2]; A-549, 100 μM): 40%
